A short description of data set [1]: in vitro. The settings on record: human, plasma.
Data set [2] can be described thus: in vitro. The settings on record: Beagle, dog, plasma.
Data set [3] is described as follows: physchem. The settings on record: octan-1-ol/water, pH 7.4, LogD7.4.
Data set [4] is described as follows: in vitro. The settings on record: human.
A short description of data set [5]: physchem. The settings on record: pH 7.4 buffer.

Molecules are shown by their SMILES. Converted amounts (≈) assume the structure as drawn.

The fraction unbound is the share of the substance not bound to proteins or other matrix. A low value points to little free substance. In general, logD refers to lipophilicity at a set pH, counting ionised and neutral species. Lower therefore signals a more hydrophilic compound. As usually defined, the microsomal CLint is a measure of how fast metabolising enzymes remove a compound, apart from limits set by blood flow. Consider `CC(C)Cn1c(=O)n(C)c(=O)c2c(C(=O)N3CC[C@@H](O)C3)c(Cc3c[nH]c4ccccc34)sc21`, for which the fraction unbound at 5 h in the data set “in vitro [1]” (PPB) was 0.0854; in “in vitro [2]” it was 0.443. Besides, the logD in the data set “physchem [3]” was found to be 2.35. Also, the microsomal CLint in “in vitro [4]” (liver microsomes) was found to be 107 µL/min/mg.
A word on the thermodynamic solubility: it is the concentration in solution at equilibrium with solid. The molecule `COc1ncc(-c2cccc3c2C[C@H](NC(=O)c2ccc(COCC(F)(F)F)nc2)CO3)cn1` returned a solubility (thermodynamic) in “physchem [5]” of 158 µM (≈ 75.2 µg/mL). The fraction unbound at 5 h in “in vitro [1]” (PPB) is 0.0366; in “in vitro [2]” it was 0.0705.
On to `Cc1ccc2c(c1)c(-c1cc(C)nc3ccccc13)c(C)n2CC(=O)O`, for which the fraction unbound at 5 h in “in vitro [1]” (PPB) was 0.004; in “in vitro [2]” it was 0.0133. This molecule returned a logD in “physchem [3]” of 2.88. Besides, the microsomal CLint in the data set “in vitro [4]” (liver microsomes) was < 3 µL/min/mg.
Regarding `Cc1c(Cl)ccc(OC2CCN(C3CCN(C(=O)c4cccc(S(C)(=O)=O)c4)CC3)CC2)c1Cl`, the fraction unbound at 5 h in “in vitro [1]” (PPB) and in “in vitro [2]” was 0.035 in each case. In the data set “physchem [3]”, this molecule returned a logD of 3.33. The molecule further gave a microsomal CLint in “in vitro [4]” (liver microsomes) of 13.5 µL/min/mg.
With `CC(C)(C)NC(=O)NCCN1CCN(CC(=O)Nc2cc(Cl)cc(Cl)c2)CC1`, the results for the fraction unbound at 5 h in the data set “in vitro [1]” (PPB) and in “in vitro [2]” were 0.0521 and 0.0556, respectively.
On to `OC[C@H]1C[C@@H](n2nnc3c(N[C@@H]4C[C@H]4c4ccc(F)c(F)c4)nc(SCCC(F)(F)F)nc32)[C@H](O)[C@@H]1O`, for which the thermodynamic solubility in the data set “physchem [5]” is 7.2 µM (≈ 3.93 µg/mL). The results for the fraction unbound at 5 h in the data set “in vitro [1]” (PPB) and in the data set “in vitro [2]” were 0.0015 and 0.002, respectively. The logD in the data set “physchem [3]” was 3.99.
Take `OCCO[C@H]1C[C@@H](n2nnc3c(N[C@@H]4C[C@H]4c4ccc(F)c(F)c4)nc(SCCC(F)(F)F)nc32)[C@H](O)[C@@H]1O`: the results for the fraction unbound at 5 h in “in vitro [1]” (PPB) and in the data set “in vitro [2]” were 0.0015 and 0.0046, respectively. In “physchem [3]”, this molecule had a logD of 4.17.
As for `C[C@H](CO)Nc1nc(SCc2cccc(F)c2F)nc2[nH]c(=O)cnc12`, in “physchem [5]”, the thermodynamic solubility came out at 3.5 µM (≈ 1.33 µg/mL). The results for the fraction unbound at 5 h in the data set “in vitro [1]” (PPB) and in the data set “in vitro [2]” were 0.0114 and 0.028, respectively. Further, the logD in the data set “physchem [3]” came out at 3.1.
As for `CC(C)Cc1nn(C)c(=O)c2c(SCCCO)n(Cc3cccc4ccccc34)cc12`, the fraction unbound at 5 h in “in vitro [1]” (PPB) is 0.0027; in “in vitro [2]” it was 0.0013.
As to `C[C@H](CO)Nc1nc(SCc2cccc(F)c2F)nc2nc(N)sc12`, the solubility (thermodynamic) in “physchem [5]” was 8.1 µM (≈ 3.11 µg/mL). In addition, the fraction unbound at 5 h is 0.0196 in the data set “in vitro [1]” (PPB) and 0.0366 in “in vitro [2]”. This molecule registered a logD in “physchem [3]” of 3.29.
For `CCCSc1nc(N[C@@H]2C[C@H]2c2ccccc2)c2nnn([C@@H]3C[C@H](O)[C@@H](O)[C@H]3O)c2n1`, in the data set “physchem [5]”, the thermodynamic solubility was found to be 1.1 µM (≈ 0.487 µg/mL). Besides, the fraction unbound at 5 h in “in vitro [2]” is 0.0066. Besides, the logD in “physchem [3]” was determined as 3.97. Besides, the microsomal CLint in the data set “in vitro [4]” (liver microsomes) was < 3 µL/min/mg.
As to `CCCCNc1nc(SCCC)nc2c1nnn2[C@@H]1C[C@H](CO)[C@@H](O)[C@H]1O`, the fraction unbound at 5 h is 0.024 in the data set “in vitro [1]” (PPB) and 0.0467 in the data set “in vitro [2]”. In addition, the pH-dependent lipophilicity (logD) in the data set “physchem [3]” is 3.07. The molecule further returned a microsomal CLint in the data set “in vitro [4]” (microsomes) of 6 µL/min/mg.
Turning to `Cc1oc(CN2CCNCC2)cc1C(=O)NCC12CC3CC(CC(C3)C1)C2`, the values for the fraction unbound at 5 h in the data set “in vitro [1]” (PPB) and in “in vitro [2]” were 0.148 and 0.437, respectively. Also, the logD in “physchem [3]” worked out at 1.03.
`OC[C@H](Nc1ncc(Cl)c(Nc2cc(C3CC3)n[nH]2)n1)c1ccc(F)cc1`: the fraction unbound at 5 h in the data set “in vitro [1]” (PPB) is 0.0437; in “in vitro [2]”, 0.0499. In “physchem [3]”, this molecule displayed a logD of 3.75.
As to `CCCNC(=O)NS(=O)(=O)c1ccc(Cl)cc1` [CHLORPROPAMIDE], the free fraction (fraction unbound) at 5 h was 0.04 in the data set “in vitro [1]” (PPB) and 0.142 in the data set “in vitro [2]”. For the same molecule, the logD in the data set “physchem [3]” is -0.33.
For `CNc1cc2[nH]c(=O)n(-c3ccc(NC(=O)NS(=O)(=O)c4ccc(Cl)s4)cc3)c(=O)c2cc1F` [ELINOGREL], the fraction unbound at 5 h in the data set “in vitro [1]” (PPB) was 0.0042; in the data set “in vitro [2]”, 0.0069.
In the case of `CC(C)n1c(/C=C/C(O)CC(O)CC(=O)O)c(-c2ccc(F)cc2)c2ccccc21` (stereo not given) [FLUVASTATIN], the results for the fraction unbound at 5 h in the data set “in vitro [1]” and in the data set “in vitro [2]” were 0.0048 and 0.0028, respectively.
